{"source": "paper PMC6294263", "about": "(Stem Cell Reports, 2018)", "key": {"[1]": {"system": "hiPSC-CMs (Cor.4U cardiomyocytes)", "assay": "calcium transient-based hiPSC-CM (CTCM) assay with cardiac hazard scoring", "conditions": "for arrhythmic (EAD-like) events: tested concentrations of Figure 5; for EAD-like events: control drugs at control concentration (E-4031 30 nM, dofetilide 3 nM, cetirizine 1 μM)", "source_text": "Fluorescence imaging of intracellular calcium dynamics (i.e., calcium transients) enabled the evaluation of the spontaneous beating properties of hiPSC-CMs (Figure 2A) using the following parameters: (1) calcium transient duration at 90% of decay following the peak amplitude (CTD90), (2) beat rate (BR) representing the number of calcium transients (i.e., beats) per minute, and (3) amplitude (Amp), representing the difference between the minimum and the maximum (peak) calcium signal.\nEffects on hiPSC-CMs were evaluated after a 30-min incubation period and normalized against the respective baseline recording, yielding a Δ% change in CTD90, BR, and Amp.\nCells were cultured with Cor.4U culture medium (Ax-M-HC250) in a humidified incubator at 37°C and 5% CO2, with medium being changed once a day. On the day of the experiment, the culture medium was replaced with Tyrode's solution (Sigma, No. T2397) supplemented with 10 mM HEPES together with KCl to represent isokalemic (4.2 mM K^+) conditions.\nBriefly, Cal-520 was incubated for 45 min followed by a washout and a 30-min recovery before starting the experiments.\nThe spontaneous beating activity of hiPSC-CMs was assessed through measurement of the Ca^2+ fluorescence signal integrated over the whole well.\nFirst, the experimental plates were put into the FDSS/μCell to stabilize for 10 min. Next, a baseline recording was run for 3 min followed by compound addition. The effect of a compound was recorded (5-min recording time) around 15 and 30 min after compound addition. CTD90, BR, and Amp were quantified for baseline and 30-min compound effects as the median value of all beats (calcium transients) measured within a 1-min interval of the recording. The recording around 15 min was used only for observation of EADs or fibrillation-like events. EADs were manually monitored and evaluated. Beat stop was defined after 30 min in case BR was <5 beats/min. Wells that temporarily stopped beating during compound addition but recovered at the 30-min time point were not defined as beat stop.\nThe responses were measured at baseline and at 30 min."}, "[2]": {"system": "hERG", "conditions": "no reference given; read-out: half maximal inhibitory concentration [IC50] on hERG; cited from earlier work"}, "[3]": {"conditions": "30-min incubation, reference drugs"}, "[4]": {"conditions": "reference drugs, tested concentrations of Figure 5 (selected to cover the therapeutic free Cmax), 30-min incubation"}, "[5]": {"conditions": "5 μM (free Cmax), 30-min incubation, control drug over numerous studies"}, "[6]": {"conditions": "0.1 μM, 30-min incubation, control drug over numerous studies, the rest in the high hazard zone"}, "[7]": {"conditions": "3 nM (2-fold free Cmax), 30-min incubation, control drug over numerous studies"}}}
{"smiles": "CCN(CC)CCCN(c1ccccc1)C1Cc2ccccc2C1", "note": "[Aprindine]", "values": [{"measurement": "effect on CTD90", "setting": "[1]; [3]", "result": "CTD90 prolongation"}]}
{"smiles": "Cc1cccc(C)c1OCC(C)N", "note": "(centres unmarked) [Mexiletine]", "values": [{"measurement": "cardiac hazard label", "setting": "[1]; [4]", "result": "low or high"}]}
{"smiles": "CC(C)(Oc1ccc(Cl)cc1)C(=O)NC1C2CC3CC1CC(NS(C)(=O)=O)(C3)C2", "note": "(centres unmarked) [JNJ-303]", "values": [{"measurement": "cardiac hazard label", "setting": "[1]; [4]", "result": "cannot be easily detected"}]}
{"smiles": "CC(C)NCC(O)COc1ccc(CC(N)=O)cc1", "note": "(centres unmarked) [Atenolol]", "values": [{"measurement": "cardiac hazard label", "setting": "[1]; [4]", "result": "not identified for any potential hazard"}]}
{"smiles": "CC(=O)c1c(O)c(C)c(O)c(Cc2c(O)c3c(c(C(=O)/C=C/c4ccccc4)c2O)OC(C)(C)C=C3)c1O", "note": "[Mallotoxin]", "values": [{"measurement": "effect on CTD90", "setting": "[1]; [3]", "result": "CTD90 shortening"}, {"measurement": "cardiac hazard label", "setting": "[1]; [4]", "result": "hazard identification"}]}
{"smiles": "CCCNCC(O)COc1ccccc1C(=O)CCc1ccccc1", "note": "(centres unmarked) [Propafenone]", "values": [{"measurement": "effect on CTD90", "setting": "[1]; [3]", "result": "CTD90 prolongation"}]}
{"smiles": "CCC(=O)O[C@](Cc1ccccc1)(c1ccccc1)[C@H](C)CN(C)C", "note": "[Propoxyphene]", "values": [{"measurement": "effect on CTD90", "setting": "[1]; [3]", "result": "CTD90 prolongation"}]}
{"smiles": "CC1(C)Oc2ccc(C#N)cc2[C@@H](N2CCCC2=O)[C@@H]1O", "note": "[Levcromakalim]", "values": [{"measurement": "effect on CTD90", "setting": "[1]; [3]", "result": "CTD90 shortening"}, {"measurement": "cardiac hazard label", "setting": "[1]; [4]", "result": "potentially hazardous compounds"}]}
{"smiles": "O=C1NC(=O)C(c2ccccc2)(c2ccccc2)N1", "note": "[Phenytoin]", "values": [{"measurement": "studies identified as low hazard", "setting": "[1]; [5]", "result": 20, "unit": "%"}, {"measurement": "studies identified as no hazard", "setting": "[1]; [5]", "result": 78, "unit": "%"}, {"measurement": "incidence of beat stop (% of wells)", "setting": "[1]; 5 μM, 30-min incubation", "result": "≤ 50", "unit": "%"}, {"measurement": "cardiac hazard label", "setting": "[1]; [4]", "result": "low or high"}]}
{"smiles": "C[N+](C)(C)CCOC(N)=O", "note": "[Carbachol]", "values": [{"measurement": "cardiac hazard label", "setting": "[1]; [4]", "result": "not identified for any potential hazard"}]}
{"smiles": "CN(C)CCCC1(c2ccc(F)cc2)OCc2cc(C#N)ccc21", "note": "(centres unmarked) [Citalopram]", "values": [{"measurement": "cardiac hazard label", "setting": "[1]; [4]", "result": "low"}]}
{"smiles": "C=C[C@H]1C[N@@]2CC[C@H]1C[C@@H]2[C@@H](O)c1ccnc2ccc(OC)cc12", "note": "[Quinidine]", "values": [{"measurement": "arrhythmic (EAD-like) events", "setting": "[1]; reference drugs", "result": "caused arrhythmic events"}]}
{"smiles": "O=C(c1ccc(OCCN2CCCCC2)cc1)c1c(-c2ccc(O)cc2)sc2cc(O)ccc12", "note": "[Raloxifene]", "values": [{"measurement": "safety margin (tested concentration/free Cmax) at which a hazard was scored", "setting": "[1]; 3–10 μM, negative control drug", "result": "≥ 2500", "unit": "fold the free Cmax"}, {"measurement": "concentrations not scored as no hazard", "setting": "[1]; negative control drug, exception to the no hazard scoring", "result": "3 to 10", "unit": "µM"}]}
{"smiles": "O=C(Nc1ccc(Oc2ccccc2)cc1)c1cccc([N+](=O)[O-])c1", "note": "[ICA-105574]", "values": [{"measurement": "effect on CTD90", "setting": "[1]; [3]", "result": "CTD90 shortening"}, {"measurement": "cardiac hazard label", "setting": "[1]; [4]", "result": "hazard identification"}]}
{"smiles": "COCCOC(=O)C1=C(C)NC(C)=C(C(=O)OC(C)C)C1c1cccc([N+](=O)[O-])c1", "note": "(centres unmarked) [Nimodipine]", "values": [{"measurement": "studies identified as low hazard", "setting": "[1]; [6]", "result": 80, "unit": "%"}, {"measurement": "effect on amplitude (Amp)", "setting": "[1]; 30-min incubation", "result": "strongly decrease the Amp"}]}
{"smiles": "C[C@@H]1O[C@@H](O[C@H]2C[C@@H](O)[C@]3(CO)[C@H]4[C@H](O)C[C@]5(C)[C@@H](C6=CC(=O)OC6)CC[C@]5(O)[C@@H]4CC[C@]3(O)C2)[C@H](O)[C@H](O)[C@H]1O", "note": "[Ouabain]", "values": [{"measurement": "cardiac hazard label", "setting": "[1]; [4]", "result": "high"}]}
{"smiles": "Cc1cc2c(s1)Nc1ccccc1N=C2N1CCN(C)CC1", "note": "[Olanzapine]", "values": [{"measurement": "cardiac hazard label", "setting": "[1]; up to the highest tested concentration (100 nM), around the free Cmax", "result": "not identified with any hazard"}]}
{"smiles": "COC(=O)C1=C(C)NC(C)=C([N+](=O)[O-])C1c1ccccc1C(F)(F)F", "note": "(centres unmarked) [BAYK8644]", "values": [{"measurement": "effect on amplitude (Amp)", "setting": "[1]; 30-min incubation", "result": "increase the Amp"}, {"measurement": "cardiac hazard label", "setting": "[1]; [4]", "result": "high"}]}
{"smiles": "O=C1NCCN1CCN1CCC(c2cn(-c3ccc(F)cc3)c3ccc(Cl)cc23)CC1", "note": "[Sertindole]", "values": [{"measurement": "safety margin (tested concentration/free Cmax) at which very high hazard (arrhythmic events) was scored", "setting": "[1]", "result": "approximately 625 fold the free Cmax"}, {"measurement": "cardiac hazard label", "setting": "[1]; 1 μM, 30-min incubation", "result": "very high"}]}
{"smiles": "O=C(NCCO[N+](=O)[O-])c1cccnc1", "note": "[Nicorandil]", "values": [{"measurement": "cardiac hazard label", "setting": "[1]; [4]", "result": "not shown to have any potential hazard risk"}]}
{"smiles": "CC[C@H]1[C@@H]2C[C@H]3[C@@H]4N(C)c5ccccc5[C@]45C[C@@H]([C@H]2[C@H]5O)N3[C@@H]1O", "note": "[Ajmaline]", "values": [{"measurement": "arrhythmic (EAD-like) events", "setting": "[1]; reference drugs", "result": "caused arrhythmic events"}]}
{"smiles": "COc1ccc(C(=O)Nc2ccccc2CCC2CCCCN2C)cc1", "note": "(centres unmarked) [Encainide]", "values": [{"measurement": "arrhythmic (EAD-like) events", "setting": "[1]; reference drugs", "result": "caused arrhythmic events"}]}
{"smiles": "CC(C)NCC(O)c1ccc(O)c(O)c1", "note": "(centres unmarked) [Isoprenaline]", "values": [{"measurement": "studies identified as low hazard", "setting": "[1]; [6]", "result": 70, "unit": "%"}, {"measurement": "effect on amplitude (Amp)", "setting": "[1]; 30-min incubation", "result": "increase the Amp"}, {"measurement": "effect on beat rate (BR)", "setting": "[1]; [3]", "result": "strong BR increase"}, {"measurement": "cardiac hazard label", "setting": "[1]; [4]", "result": "low or high"}]}
{"smiles": "CN(CCOc1ccc(NS(C)(=O)=O)cc1)CCc1ccc(NS(C)(=O)=O)cc1", "note": "[Dofetilide]", "values": [{"measurement": "studies identified as high hazard", "setting": "[1]; [7]", "result": 14, "unit": "%"}, {"measurement": "studies identified as very high hazard", "setting": "[1]; [7]", "result": 80, "unit": "%"}, {"measurement": "EAD-like events", "setting": "[1]; 30-min incubation", "result": "provoked such EAD-like events"}]}
{"smiles": "CC(N/C(=N\\C#N)Nc1ccncc1)C(C)(C)C", "note": "(centres unmarked) [Pinacidil]", "values": [{"measurement": "effect on CTD90", "setting": "[1]; [3]", "result": "CTD90 shortening"}, {"measurement": "cardiac hazard label", "setting": "[1]; [4]", "result": "potentially hazardous compounds"}]}
{"smiles": "CCCCCNC(=N)N/N=C/c1c[nH]c2ccc(OC)cc12", "note": "[Tegaserod]", "values": [{"measurement": "cardiac hazard label", "setting": "[1]; [4]", "result": "high"}]}
{"smiles": "O=C(O)COCCN1CCN(C(c2ccccc2)c2ccc(Cl)cc2)CC1", "note": "(centres unmarked) [Cetirizine]", "values": [{"measurement": "studies identified as no hazard", "setting": "[1]; 1 μM (16-fold free Cmax), 30-min incubation, control drug over numerous studies", "result": 99, "unit": "%"}, {"measurement": "EAD-like events", "setting": "[1]; 30-min incubation", "result": "not observed any EAD-like event"}]}
{"smiles": "CC(C)(C)NCC(O)c1ccc(O)c(CO)c1", "note": "(centres unmarked) [Salbutamol]", "values": [{"measurement": "effect on beat rate (BR)", "setting": "[1]; [3]", "result": "strong BR increase"}, {"measurement": "cardiac hazard label", "setting": "[1]; [4]", "result": "low or high"}]}
{"smiles": "COc1cc2c(cc1OC)CC(=O)N(CCCN(C)C[C@H]1Cc3cc(OC)c(OC)cc31)CC2", "note": "[Ivabradine]", "values": [{"measurement": "IC50", "setting": "[2]", "result": "~2400", "unit": "nM"}]}
{"smiles": "CN(C)CCC[C@@]1(c2ccc(F)cc2)OCc2cc(C#N)ccc21", "note": "[Escitalopram]", "values": [{"measurement": "cardiac hazard label", "setting": "[1]; at 3- to 10-fold the free Cmax", "result": "high"}]}
{"smiles": "CC(CCc1ccc(O)cc1)NCCc1ccc(O)c(O)c1", "note": "(centres unmarked) [Dobutamine]", "values": [{"measurement": "effect on beat rate (BR)", "setting": "[1]; [3]", "result": "strong BR increase"}, {"measurement": "cardiac hazard label", "setting": "[1]; [4]", "result": "low or high"}]}
